Experimental data published in PubChem BioAssay (NCI).
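The compound was tested at five concentrations on cells cultured in 96-well plates, with a 48-hour exposure period. At the GI50, growth is halved. TGI is the concentration that stops growth completely.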

Legend:
Assay in all cases: NCI-60 cell line screen, 48 h
786-0 renal = tested on: 786-0 renal
A498 renal = tested on: A498 renal
A549 NSCLC = tested on: A549 NSCLC
ACHN renal = tested on: ACHN renal
BT-549 breast = tested on: BT-549 breast
CAKI-1 renal = tested on: CAKI-1 renal
CCRF-CEM leukemia = tested on: CCRF-CEM leukemia
COLO 205 colon = tested on: COLO 205 colon
DU-145 prostate = tested on: DU-145 prostate
EKVX NSCLC = tested on: EKVX NSCLC
HCC-2998 colon = tested on: HCC-2998 colon
HCT-116 colon = tested on: HCT-116 colon
HCT-15 colon = tested on: HCT-15 colon
HOP-62 NSCLC = tested on: HOP-62 NSCLC
HOP-92 NSCLC = tested on: HOP-92 NSCLC
HS 578T breast = tested on: HS 578T breast
HT29 colon = tested on: HT29 colon
IGROV1 ovarian = tested on: IGROV1 ovarian
K-562 leukemia = tested on: K-562 leukemia
KM12 colon = tested on: KM12 colon
LOX IMVI melanoma = tested on: LOX IMVI melanoma
M14 melanoma = tested on: M14 melanoma
MALME-3M melanoma = tested on: MALME-3M melanoma
MCF7 breast = tested on: MCF7 breast
MDA-MB-231 breast = tested on: MDA-MB-231 breast
MDA-MB-435 = tested on: MDA-MB-435
MOLT-4 leukemia = tested on: MOLT-4 leukemia
NCI-H226 lung = tested on: NCI-H226 lung
NCI-H23 lung = tested on: NCI-H23 lung
NCI-H460 lung = tested on: NCI-H460 lung
NCI-H522 lung = tested on: NCI-H522 lung
NCI/ADR-RES ovarian = tested on: NCI/ADR-RES ovarian
OVCAR-3 ovarian = tested on: OVCAR-3 ovarian
OVCAR-4 ovarian = tested on: OVCAR-4 ovarian
OVCAR-5 ovarian = tested on: OVCAR-5 ovarian
OVCAR-8 ovarian = tested on: OVCAR-8 ovarian
PC-3 prostate = tested on: PC-3 prostate
RXF 393 renal = tested on: RXF 393 renal
SF-268 CNS = tested on: SF-268 CNS
SF-295 CNS = tested on: SF-295 CNS
SF-539 CNS = tested on: SF-539 CNS
SK-MEL-2 melanoma = tested on: SK-MEL-2 melanoma
SK-MEL-28 melanoma = tested on: SK-MEL-28 melanoma
SK-MEL-5 melanoma = tested on: SK-MEL-5 melanoma
SK-OV-3 ovarian = tested on: SK-OV-3 ovarian
SN12C renal = tested on: SN12C renal
SNB-19 CNS = tested on: SNB-19 CNS
SNB-75 CNS = tested on: SNB-75 CNS
SR leukemia = tested on: SR leukemia
SW-620 colon = tested on: SW-620 colon
TK-10 renal = tested on: TK-10 renal
U251 CNS = tested on: U251 CNS
UACC-257 melanoma = tested on: UACC-257 melanoma
UACC-62 melanoma = tested on: UACC-62 melanoma
UO-31 renal = tested on: UO-31 renal

With Cn1cc(-c2ccc3occ(-c4cccc(-c5ccncc5)c4)c3n2)cn1 as the molecule, how does the GI50 (786-0 renal) read?
The GI50 was 1.25 µM.

And the TGI (786-0 renal)?
The TGI was greater than 100 µM.

And the GI50 (A498 renal)?
Its GI50 is 0.159 µM.

And the TGI (A498 renal)?
The TGI was 0.832 µM.

And the GI50 (A549 NSCLC)?
The GI50 was 0.714 µM.

And the TGI (A549 NSCLC)?
Its TGI is greater than 100 µM.

What about the GI50 (ACHN renal) of the same molecule?
The GI50 was 0.8 µM.

What about the TGI (ACHN renal) of the same molecule?
The TGI was greater than 100 µM.

And the GI50 (BT-549 breast)?
Its GI50 is 1.22 µM.

What about the TGI (BT-549 breast) of the same molecule?
The TGI was 17.1 µM.

What about the GI50 (CAKI-1 renal) of the same molecule?
The GI50 was 0.38 µM.

What about the TGI (CAKI-1 renal) of the same molecule?
The TGI was greater than 100 µM.

And the GI50 (CCRF-CEM leukemia)?
The GI50 was 0.923 µM.

What about the TGI (CCRF-CEM leukemia) of the same molecule?
The TGI was greater than 100 µM.

And the GI50 (COLO 205 colon)?
The GI50 was 0.546 µM.

And the TGI (COLO 205 colon)?
Its TGI is greater than 100 µM.

And the GI50 (DU-145 prostate)?
The GI50 was 2.65 µM.

What about the TGI (DU-145 prostate) of the same molecule?
The TGI was greater than 100 µM.

And the GI50 (EKVX NSCLC)?
The GI50 was 1.25 µM.

What about the TGI (EKVX NSCLC) of the same molecule?
Its TGI is greater than 100 µM.

What about the GI50 (HCC-2998 colon) of the same molecule?
The GI50 was 1.74 µM.

What about the TGI (HCC-2998 colon) of the same molecule?
Its TGI is greater than 100 µM.

What about the GI50 (HCT-116 colon) of the same molecule?
The GI50 was 0.382 µM.

And the TGI (HCT-116 colon)?
Its TGI is greater than 100 µM.

And the GI50 (HCT-15 colon)?
The GI50 was 0.285 µM.

What about the TGI (HCT-15 colon) of the same molecule?
Its TGI is greater than 100 µM.

And the GI50 (HOP-62 NSCLC)?
The GI50 was 0.815 µM.

What about the TGI (HOP-62 NSCLC) of the same molecule?
The TGI was greater than 100 µM.

And the GI50 (HOP-92 NSCLC)?
The GI50 was 2.76 µM.

And the TGI (HOP-92 NSCLC)?
Its TGI is greater than 100 µM.

And the GI50 (HS 578T breast)?
The GI50 was 0.377 µM.

What about the TGI (HS 578T breast) of the same molecule?
Its TGI is 6.18 µM.

What about the GI50 (HT29 colon) of the same molecule?
Its GI50 is 0.356 µM.

What about the TGI (HT29 colon) of the same molecule?
The TGI was greater than 100 µM.

What about the GI50 (IGROV1 ovarian) of the same molecule?
Its GI50 is 0.592 µM.

What about the TGI (IGROV1 ovarian) of the same molecule?
The TGI was greater than 100 µM.

What about the GI50 (K-562 leukemia) of the same molecule?
Its GI50 is 0.284 µM.

What about the TGI (K-562 leukemia) of the same molecule?
The TGI was greater than 100 µM.

What about the GI50 (KM12 colon) of the same molecule?
Its GI50 is 0.358 µM.

And the TGI (KM12 colon)?
Its TGI is greater than 100 µM.

What about the GI50 (LOX IMVI melanoma) of the same molecule?
Its GI50 is 0.564 µM.

And the TGI (LOX IMVI melanoma)?
The TGI was greater than 100 µM.

And the GI50 (M14 melanoma)?
Its GI50 is 0.457 µM.

What about the TGI (M14 melanoma) of the same molecule?
The TGI was greater than 100 µM.

And the GI50 (MALME-3M melanoma)?
The GI50 was 1.19 µM.

And the TGI (MALME-3M melanoma)?
Its TGI is greater than 100 µM.

And the GI50 (MCF7 breast)?
The GI50 was 0.419 µM.

And the TGI (MCF7 breast)?
Its TGI is greater than 100 µM.

And the GI50 (MDA-MB-231 breast)?
The GI50 was 1.62 µM.

What about the TGI (MDA-MB-231 breast) of the same molecule?
The TGI was greater than 100 µM.

What about the GI50 (MDA-MB-435) of the same molecule?
The GI50 was 0.176 µM.

What about the TGI (MDA-MB-435) of the same molecule?
Its TGI is 0.525 µM.

What about the GI50 (MOLT-4 leukemia) of the same molecule?
Its GI50 is 0.582 µM.

What about the TGI (MOLT-4 leukemia) of the same molecule?
Its TGI is greater than 100 µM.

And the GI50 (NCI-H226 lung)?
Its GI50 is 1.5 µM.

What about the TGI (NCI-H226 lung) of the same molecule?
The TGI was greater than 100 µM.

What about the GI50 (NCI-H23 lung) of the same molecule?
The GI50 was 1.26 µM.

And the TGI (NCI-H23 lung)?
Its TGI is greater than 100 µM.

What about the GI50 (NCI-H460 lung) of the same molecule?
Its GI50 is 0.381 µM.

What about the TGI (NCI-H460 lung) of the same molecule?
The TGI was greater than 100 µM.

And the GI50 (NCI-H522 lung)?
The GI50 was 0.594 µM.

What about the TGI (NCI-H522 lung) of the same molecule?
Its TGI is 12.1 µM.

What about the GI50 (NCI/ADR-RES ovarian) of the same molecule?
The GI50 was 0.368 µM.

What about the TGI (NCI/ADR-RES ovarian) of the same molecule?
Its TGI is greater than 100 µM.

What about the GI50 (OVCAR-3 ovarian) of the same molecule?
Its GI50 is 0.479 µM.

What about the TGI (OVCAR-3 ovarian) of the same molecule?
The TGI was greater than 100 µM.

And the GI50 (OVCAR-4 ovarian)?
The GI50 was 2.7 µM.

And the TGI (OVCAR-4 ovarian)?
The TGI was greater than 100 µM.

What about the GI50 (OVCAR-5 ovarian) of the same molecule?
Its GI50 is 3.96 µM.

And the TGI (OVCAR-5 ovarian)?
Its TGI is greater than 100 µM.

What about the GI50 (OVCAR-8 ovarian) of the same molecule?
Its GI50 is 1.31 µM.

What about the TGI (OVCAR-8 ovarian) of the same molecule?
The TGI was greater than 100 µM.

And the GI50 (PC-3 prostate)?
Its GI50 is 0.961 µM.

What about the TGI (PC-3 prostate) of the same molecule?
The TGI was greater than 100 µM.

And the GI50 (RXF 393 renal)?
The GI50 was 0.661 µM.

And the TGI (RXF 393 renal)?
The TGI was 4.44 µM.

And the GI50 (SF-268 CNS)?
Its GI50 is 1.46 µM.

And the TGI (SF-268 CNS)?
Its TGI is greater than 100 µM.

What about the GI50 (SF-295 CNS) of the same molecule?
Its GI50 is 0.809 µM.

And the TGI (SF-295 CNS)?
Its TGI is greater than 100 µM.

What about the GI50 (SF-539 CNS) of the same molecule?
Its GI50 is 0.734 µM.

What about the TGI (SF-539 CNS) of the same molecule?
The TGI was 5.54 µM.

And the GI50 (SK-MEL-2 melanoma)?
The GI50 was 0.758 µM.

What about the TGI (SK-MEL-2 melanoma) of the same molecule?
Its TGI is greater than 100 µM.

What about the GI50 (SK-MEL-28 melanoma) of the same molecule?
Its GI50 is 1.77 µM.

What about the TGI (SK-MEL-28 melanoma) of the same molecule?
The TGI was greater than 100 µM.

And the GI50 (SK-MEL-5 melanoma)?
Its GI50 is 0.406 µM.

And the TGI (SK-MEL-5 melanoma)?
Its TGI is 1.63 µM.

And the GI50 (SK-OV-3 ovarian)?
Its GI50 is 1.82 µM.

And the TGI (SK-OV-3 ovarian)?
Its TGI is greater than 100 µM.

What about the GI50 (SN12C renal) of the same molecule?
The GI50 was 1.32 µM.

What about the TGI (SN12C renal) of the same molecule?
Its TGI is greater than 100 µM.

What about the GI50 (SNB-19 CNS) of the same molecule?
Its GI50 is 1.21 µM.

What about the TGI (SNB-19 CNS) of the same molecule?
The TGI was greater than 100 µM.

And the GI50 (SNB-75 CNS)?
The GI50 was 0.404 µM.

And the TGI (SNB-75 CNS)?
The TGI was 13.4 µM.

What about the GI50 (SR leukemia) of the same molecule?
Its GI50 is 0.23 µM.

And the TGI (SR leukemia)?
Its TGI is greater than 100 µM.

And the GI50 (SW-620 colon)?
Its GI50 is 0.435 µM.

And the TGI (SW-620 colon)?
The TGI was greater than 100 µM.

What about the GI50 (TK-10 renal) of the same molecule?
Its GI50 is 2.1 µM.

What about the TGI (TK-10 renal) of the same molecule?
The TGI was greater than 100 µM.

And the GI50 (U251 CNS)?
Its GI50 is 0.601 µM.

What about the TGI (U251 CNS) of the same molecule?
Its TGI is greater than 100 µM.

And the GI50 (UACC-257 melanoma)?
Its GI50 is 2.6 µM.

What about the TGI (UACC-257 melanoma) of the same molecule?
The TGI was greater than 100 µM.

And the GI50 (UACC-62 melanoma)?
The GI50 was 0.478 µM.

And the TGI (UACC-62 melanoma)?
Its TGI is greater than 100 µM.

What about the GI50 (UO-31 renal) of the same molecule?
The GI50 was 1.46 µM.

And the TGI (UO-31 renal)?
Its TGI is greater than 100 µM.
